Test results from patent US6903108B2, “Fungicidal mixtures based on amide compounds and pyridine derivatives” (BASF Aktiengesellschaft, priority 1997, dated 2005).
“And” between values parts separate entries of the source, which are not always exact repeats. Identical values can stand only once.

Key:
Botrytis cinerea [1] = assay: Activity against Botrytis cinerea on bell peppers, green fruit disks (Use Example 2); assay type: in vivo
Botrytis cinerea [2] = assay: Activity against Botrytis cinerea on bell pepper leaves (Use Example 1); conditions: in vivo

Structure (SMILES): O=C(Nc1ccccc1-c1ccc(F)cc1)c1cccnc1Cl [Compound I.1]
- Efficacy in % of the untreated control (Botrytis cinerea [1]; in vivo): 0%

Structure (SMILES): O=C(Nc1ccccc1-c1ccc(Cl)cc1)c1cccnc1Cl [Compound I.2]
- Efficacy in % of the untreated control (Botrytis cinerea [2]): 67% and 44%

Structure (SMILES): N#Cc1c[nH]cc1-c1cccc2c1OC(F)(F)O2 [Compound IV, fludioxinil]
- Efficacy in % of the untreated control (Botrytis cinerea [1]; in vivo): 0%

Structure (SMILES): CN(C)S(=O)(=O)N(SC(F)(Cl)Cl)c1ccccc1 [Compound IXa, dichlofluanid]
- Efficacy in % of the untreated control (Botrytis cinerea [2]): 0%

Structure (SMILES): O=C1c2ccccc2C(=O)N1SC(Cl)(Cl)Cl [Compound VII, folpet]
- Efficacy in % of the untreated control (Botrytis cinerea [2]): 0%
- Efficacy in % of the untreated control (Botrytis cinerea [1]; in vivo): 0%

Structure (SMILES): O=[N+]([O-])c1cc(C(F)(F)F)c(Cl)c([N+](=O)[O-])c1Nc1ncc(C(F)(F)F)cc1Cl [Compound VIII, fluazinam]
- Efficacy in % of the untreated control (Botrytis cinerea [1]; 16 ppm active ingredient in the spray liquor, green bell pepper fruit disks, 4 days at 18° C.): 0%
- Efficacy in % of the untreated control (Botrytis cinerea [1]; 31 ppm active ingredient in the spray liquor, green bell pepper fruit disks, 4 days at 18° C.): 0%
